Test: not given

Row | Structure (SMILES) | logP
1 | O=C(O)COc1ccc(N=Nc2ccccc2)cc1 | 2.99
2 | O=C(O)COc1cccc(S(F)(F)(F)(F)F)c1 | 2.78
3 | O=C(O)COc1ccc2c(c1)CCC2 | 2.33
4 | O=C(O)COc1cccc([N+](=O)[O-])c1 | 1.37
5 | Nc1cccc(F)c1 | 1.3
6 | CCCCc1cccc(OCC(=O)O)c1 | 3.18
7 | O=C(O)COc1cccc(S(=O)(=O)C(F)(F)F)c1 | 2.19
8 | CC(C)c1cccc(OCC(=O)O)c1 | 2.59
9 | COc1ccc(CO)cc1 | 1.1
10 | O=C(O)COc1ccc(C2CCCCC2)cc1 | 3.79
11 | O=C(O)COc1cccc(OC(F)(F)F)c1 | 2.48
12 | O=C(O)COc1cccc(Cl)c1 | 2.03
13 | OCc1cccc(Cl)c1 | 1.94
14 | O=C(O)COc1cccc(NC(=O)c2ccccc2)c1 | 1.99
15 | O=C(O)c1cccc(C(=O)O)c1 | 1.66
16 | O=C(O)COc1ccccc1I | 2.19
17 | O=[N+]([O-])c1cccc(CO)c1 | 1.21
18 | Oc1ccccc1Br | 2.35
19 | O=C(O)COc1ccc2c(c1)CCCC2 | 2.67
20 | O=C(O)Cc1cccc(Br)c1 | 2.37

Row | Structure (SMILES) | logP
21 | CC(=O)c1cccc([N+](=O)[O-])c1 | 1.42
22 | Nc1cccc(CO)c1 | -0.05
23 | O=[N+]([O-])c1cccc(Br)c1 | 2.64
24 | COC(=O)c1cccc(C(=O)O)c1 | 1.83
25 | N#Cc1cccc(O)c1 | 1.7
26 | CC(C)(C)c1cccc(OCC(=O)O)c1 | 2.96
27 | COc1ccc(OCC(=O)O)cc1 | 1.23
28 | O=C(O)c1ccc(Br)cc1 | 2.86
29 | CCCc1cccc(OCC(=O)O)c1 | 2.71
30 | COc1cccc(OCC(=O)O)c1 | 1.38
31 | CCc1cccc(O)c1 | 2.4
32 | O=C(O)Cc1cccc([N+](=O)[O-])c1 | 1.45
33 | O=C(O)COc1cccc(C(=O)O)c1 | 1.11
34 | CS(=O)(=O)c1cccc(CC(=O)O)c1 | 0.06
35 | CS(=O)(=O)c1cccc(OCC(=O)O)c1 | 0.01
36 | O=C(O)Cc1ccc(Br)cc1 | 2.31
37 | O=C(O)COc1cccc(O)c1 | 0.76
38 | Oc1cccc(I)c1 | 2.93
39 | CCC(C)c1ccc(OCC(=O)O)cc1 (stereo not given) | 3.12
40 | O=C(O)COc1cccc(F)c1 | 1.48

Row | Structure (SMILES) | logP
41 | CC(C)c1ccc(OCC(=O)O)cc1 | 2.69
42 | O=C(O)Cc1cccc(Cl)c1 | 2.09
43 | Cc1cccc(CO)c1 | 1.6
44 | O=C(O)COc1ccc(C2CCCC2)cc1 | 3.41
45 | O=C(O)COc1ccc([N+](=O)[O-])cc1 | 1.48
46 | Oc1ccccc1F | 1.71
47 | CC(=O)Oc1ccccc1 | 1.49
48 | O=C(O)COc1ccc(O)cc1 | 0.65
49 | CN(C)c1cccc(O)c1 | 1.56
50 | N#Cc1cccc(C(=O)O)c1 | 1.48
51 | O=C(O)Cc1cccc(O)c1 | 0.85
52 | O=C(O)c1cccc(C(F)(F)F)c1 | 2.95
53 | O=C(O)COc1cccc(I)c1 | 2.44
54 | O=C(O)COc1cccc(SC(F)(F)F)c1 | 2.86
55 | CC(=O)c1cccc(O)c1 | 1.39
56 | O=C(O)COc1cccc(-c2ccccc2)c1 | 3.18
57 | CSc1cccc(OCC(=O)O)c1 | 1.9
58 | CC(=O)Nc1cccc(OCC(=O)O)c1 | 0.48
59 | NC(=O)Nc1cccc(OCC(=O)O)c1 | 0.26
60 | CC(=O)c1ccccc1OCC(=O)O | 1.25

Test: method code SF-C, from DOI: 10.1021/ja01077a028

Row | Structure (SMILES) | logP
61 | Cc1cccc(CC(=O)O)c1 | 1.95
62 | N#Cc1cccc(CC(=O)O)c1 | 1.18
63 | O=C(O)COc1ccccc1Br | 2.1
64 | O=C(O)COc1ccccc1Cl | 2.02
65 | O=C(O)COc1ccccc1[N+](=O)[O-] | 1.22
66 | O=C(O)Cc1cccc(F)c1 | 1.65
67 | O=C(O)Cc1cccc(C(=O)O)c1 | 1.14
68 | O=C(O)Cc1ccccc1F | 1.5
69 | O=C(O)Cc1cccc(C(F)(F)F)c1 | 2.62
70 | COc1cccc(CC(=O)O)c1 | 1.5

— the SangsterLogP compilation
